Assay results from US11981954B2, “Compositions and methods for rapid identification and phenotypic antimicrobial susceptibility testing of bacteria and fungi” (priority 2019, dated 2024).

Tests used:
Conditions in all cases: interpreted according to CLSI M100 ED 30, confirmed by PCR ID/AST after 4 h incubation, 5E5 CFU/mL
[1] = test system: K. pneumoniae strain 16565; experiment: PCR-based rapid ID/AST and CLSI susceptibility interpretation, K. pneumoniae strain 16565; type: cell-based, Klebsiella pneumoniae
Experimental: (§1) • a. Prepare antimicrobial (Abx) Plate ahead of time and store at […] until needed • i. Diluent—Cation Adjusted Mueller Hinton Broth (CAMHB) • ii. Final Vol—50 ul/well • iii. Remove from −80 C and let thaw at 30 min/Room Temp prior to use
(§2) • b. Overnight cultures in CAMHB—37 C/16-18 hrs/500 rpm • i. 10 ul glycerol stock+490 ul CAMHB in 2 mL 96-well Deep Well Plate • c. Normalize cultures to 1.00E+06 CFU/mL by Optical Density (OD) • d. Prepare Test Plate by adding 50 ul normalized test isolate to appropriate wells of Abx Plate as outlined
(§3) • e. Incubate Test Plate at 37 C/4 hrs/no shaking • f. Prepare PCR Reagents according to TABLE XXIX • g. Add 45 ul Master Mix to each well of a PCR Assay Plate • h. Following incubation, stamp 5 ul/well of Test Plate to PCR Assay Plate • i. Final Vol—50 ul/well • i. For Test Plate, continue incubating at 37 C/12-16 hrs/no shaking to determine reference method Minimum Inhibitory Concentration (MIC) • j. Load PCR Assay Plate to cobas z 480 instrument and run under conditions of TABLE XXX. • k. Following incubation read Test Plate for MIC and determine phenotypic Susceptible/Intermediate/Resistant interpretation.
(§4) The primer/probe sets used were as follows. […]
(§5) The percentages on the Y-axis depicted as “Fold Change Abx level 1” were determined using the calculation 2^-(Abx_Level_1_Ct−Reference_Ct) or 2^-([…]Ct).

[2] = test system: A. baumannii strain 16421; experiment: PCR-based rapid ID/AST and CLSI susceptibility interpretation, A. baumannii strain 16421; type: cell-based, Acinetobacter baumannii
Experimental: as §1, §2, §3, §4

[3] = test system: P. aeruginosa strain 16657; experiment: PCR-based rapid ID/AST and CLSI susceptibility interpretation, P. aeruginosa strain 16657; type: cell-based, Pseudomonas aeruginosa
Experimental: as §1, §2, §3, §4

[4] = test system: K. pneumoniae strain 0143; experiment: PCR-based rapid ID/AST and CLSI susceptibility interpretation, K. pneumoniae strain 0143; type: cell-based, Klebsiella pneumoniae
Experimental: as §1, §2, §3, §4, §5

[5] = test system: P. aeruginosa strain 17816; experiment: PCR-based rapid ID/AST and CLSI susceptibility interpretation, P. aeruginosa strain 17816; type: cell-based, Pseudomonas aeruginosa
Experimental: as §1, §2, §3, §4

[6] = test system: A. baumannii strain 17694; experiment: PCR-based rapid ID/AST and CLSI susceptibility interpretation, A. baumannii strain 17694; type: cell-based, Acinetobacter baumannii
Experimental: as §1, §2, §3, §4

E. faecium strain 18483 = experiment: PCR-based rapid ID/AST and CLSI susceptibility interpretation, E. faecium strain 18483; type: cell-based, Enterococcus faecium
Experimental: as §1, §2
as §3, with “interpretation. […]” for “interpretation.”

E. faecium strain 18446 = experiment: PCR-based rapid ID/AST and CLSI susceptibility interpretation, E. faecium strain 18446; type: cell-based, Enterococcus faecium
Experimental: as §1, §2
as §3, with “interpretation. […]” for “interpretation.”

S. aureus strain 15509 = experiment: PCR-based rapid ID/AST and CLSI susceptibility interpretation, S. aureus strain 15509; type: cell-based, Staphylococcus aureus
Experimental: as §1, §2, §3
(§6) Rapid Identification and phenotypic antimicrobial susceptibility testing of Staphylococcus aureus utilizing three distinct target genes (gyrB, ddlA, tuf) and one class of antibacterial agent, cefoxitin (cephalosporin) was performed. […]

S. aureus strain 16405 = experiment: PCR-based rapid ID/AST and CLSI susceptibility interpretation, S. aureus strain 16405; type: cell-based, Staphylococcus aureus
Experimental: as §1, §2, §3, §6

Compound	antimicrobial susceptibility of the strain to the given antimicrobial [1]	antimicrobial susceptibility of the strain to the given antimicrobial [2]	antimicrobial susceptibility of the strain to the given antimicrobial [3]	antimicrobial susceptibility of the strain to the given antimicrobial [4]	antimicrobial susceptibility of the strain to the given antimicrobial [5]	antimicrobial susceptibility of the strain to the given antimicrobial [6]	antimicrobial susceptibility of the strain to the given antimicrobial (E. faecium strain 18483)	antimicrobial susceptibility of the strain to the given antimicrobial (E. faecium strain 18446)	antimicrobial susceptibility of the strain to the given antimicrobial (S. aureus strain 15509)	antimicrobial susceptibility of the strain to the given antimicrobial (S. aureus strain 16405)
C[C@@H](O)[C@H]1C(=O)N2C(C(=O)O)=C(S[C@@H]3CN[C@H](C(=O)N(C)C)C3)[C@H](C)[C@H]12 [meropenem]	sensitive	sensitive	resistant	resistant	sensitive	resistant	–	–	–	–
gentamicin	sensitive	sensitive	resistant	resistant	sensitive	resistant	–	–	–	–
CC1(C)S[C@@H]2[C@H](NC(=O)[C@H](N)c3ccccc3)C(=O)N2[C@H]1C(=O)O [ampicillin]	–	–	–	–	–	–	resistant	sensitive	–	–
CN[C@H](CC(C)C)C(=O)N[C@H]1C(=O)N[C@@H](CC(N)=O)C(=O)N[C@H]2C(=O)N[C@H]3C(=O)N[C@H](C(=O)N[C@H](C(=O)O)c4cc(O)cc(O)c4-c4cc3ccc4O)[C@H](O)c3ccc(c(Cl)c3)Oc3cc2cc(c3O[C@@H]2O[C@H](CO)[C@@H](O)[C@H](O)[C@H]2O[C@H]2C[C@](C)(N)[C@H](O)[C@H](C)O2)Oc2ccc(cc2Cl)[C@H]1O [vancomycin]	–	–	–	–	–	–	resistant	sensitive	–	–
CO[C@@]1(NC(=O)Cc2cccs2)C(=O)N2C(C(=O)O)=C(COC(N)=O)CS[C@@H]21 [cefoxitin]	–	–	–	–	–	–	–	–	resistant	sensitive
